Results on two compounds are retold here after paper PMC11901902, “Design, Synthesis, and Cytotoxicity Evaluation of Novel Indolin-2-One Based Molecules on Hepatocellular Carcinoma HepG2 Cells as Protein Kinase Inhibitors” (Molecules, 2025).

One series concerns HepG-2 cells. The series can be described thus: MTT cytotoxicity assay on HepG-2 cells. The following applies: for fold higher cytotoxicity than indirubin: HepG-2 cells, relative to indirubin; for viability at 1.25 µM / viability at 2.5 µM / viability at 5 µM / viability at 10 µM / viability at 20 µM / viability at 40 µM / viability at 80 µM / viability at 160 µM / IC50: Homo sapiens, HepG2; for viability at 1.25 µM: HepG-2, 1.25 µM; for viability at 1.25 µM / viability at 2.5 µM / viability at 5 µM / viability at 10 µM / viability at 20 µM / viability at 40 µM / viability at 80 µM / viability at 160 µM: Table S1; for viability at 2.5 µM: HepG-2, 2.5 µM; for viability at 5 µM: HepG-2, 5 µM; for viability at 10 µM: HepG-2, 10 µM; for viability at 20 µM: HepG-2, 20 µM; for viability at 40 µM: HepG-2, 40 µM; for viability at 80 µM: HepG-2, 80 µM; for viability at 160 µM: HepG-2, 160 µM; for IC50: MTT, 24 h treatment, mean of three experiments ± SEM. In kind it is cell-based, human. The protocol: (§1) Cytotoxic activity of the synthesized compounds was evaluated against HepG-2 and MCF-7 cancer cell lines using the MTT assay. The tested cell lines were obtained from the American Type Culture Collection (ATCC, […], USA) through the Tissue Culture Unit, The Egyptian Organization for Biological Products and Vaccines (Vacsera, Giza, Egypt). Indirubin, chemicals, and solvents were purchased from Sigma-Aldrich (St. Louis, MO, USA). The cells were grown on RPMI-1640 medium supplemented with 10% inactivated fetal calf serum and 50 µg/mL gentamycin. The cells were maintained at 37 °C in a humidified atmosphere with 5% CO2 and were sub-cultured two to three times per week. For antitumor assays, the tumor cell lines were suspended in the medium at concentration 5 × 10^4 cell/well in Corning® 96-well tissue culture plates (Corning, Corning, NY, USA), then incubated for 24 h. The tested molecules were then added to 96-well plates (six replicates) to achieve six concentrations for each compound. Six vehicle controls with media or 0.5% DMSO were run for each 96-well plate as a control. After incubating for 24 h, the numbers of viable cells were determined by the MTT test. Briefly, the media was removed from the 96 well plate and replaced with 100 µL of fresh culture RPMI 1640 medium without phenol red then 10 µL of the 12 mM MTT stock solution (5 mg of MTT in 1 mL of PBS) to each well including the untreated controls. The 96-well plates were then incubated at 37 °C and 5% CO2 for 4 h. An 85 µL aliquot of the media was removed from the wells, and 50 µL of DMSO was added to each well, mixed thoroughly with the pipette, and incubated at 37 °C for 10 min. Then, the optical density was measured at 590 nm with the microplate reader (SunRise, TECAN, Inc., Morrisville, NC, USA) to determine the number of viable cells, and the percentage of viability was calculated as […], where ODt is the mean optical density of wells treated with the tested sample and ODc is the mean optical density of untreated cells. The relation between surviving cells and drug concentration was plotted to obtain the survival curve of each tumor cell line after treatment with the specified compound. […] Each concentration was repeated four times.
For orientation: Tetrazolium assays rely on reduction of a dye to a coloured formazan, in cell work by metabolically active cells.

The subject of a further series is MCF-7 cells. The series can be described thus: MTT cytotoxicity assay on MCF-7 cells. It counts as cell-based. Conditions: Homo sapiens, MCF7; for viability at 1.25 µM: MCF-7, 1.25 µM; for viability at 1.25 µM / viability at 2.5 µM / viability at 5 µM / viability at 10 µM / viability at 20 µM / viability at 40 µM / viability at 80 µM / viability at 160 µM: Table S2; for viability at 2.5 µM: MCF-7, 2.5 µM; for viability at 5 µM: MCF-7, 5 µM; for viability at 10 µM: MCF-7, 10 µM; for viability at 20 µM: MCF-7, 20 µM; for viability at 40 µM: MCF-7, 40 µM; for viability at 80 µM: MCF-7, 80 µM; for viability at 160 µM: MCF-7, 160 µM; for IC50: MTT, 24 h treatment, mean of three experiments ± SEM, read-out: IC50 (µM) MCF-7. The protocol: as §1

The target in another series is T1, VEGFR-2 (Homo sapiens, UniProt P35968).
T1 construct: purchased BPS Bioscience 40301
In words: Kinase-Glo Plus luminescence kinase inhibition assay, VEGFR-2. In kind it is biochemical. Conditions: 10 µM ATP, 30 °C, 40 min; mean ± SEM. The protocol: (§2) The enzyme inhibition assay for the tested molecules was performed at BPS Bioscience Corporation, San Diego, CA, USA. The following materials served as the enzyme sources, Poly (Glu, Tyr) sodium salt (4:1, Glu:Tyr) (Sigma#P7244) served as the standardized substrate, and the Kinase-Glo Plus Luminescence kinase assay kit (Promega # V3772) was used. […] Glo Plus luminescence kinase assay kits. The assays were performed using Kinase-Glo Plus luminescence (Promega Corporation, Madison, WI, USA).
(§3) The tested molecules 9, 20, and indurbin were diluted to 100 µL in DMSO (10%), and 5 µL of the solution was added to a 50-µL enzyme reaction until the final concentration of DMSO was 1% in all of reactions. The enzymatic reactions were conducted at 30 °C for 40 min. The reaction mixture contained enzyme substrate and respective kinases. After the enzymatic reaction, 50 µL of enzyme-Glo Plus luminescence […] assay solution (Promega) was added to each reaction, and the plate was incubated for 5 min at room temperature. The luminescence signal was measured using a BioTek Synergy 2 microplate reader. The luminescence data were analyzed using the computer software GraphPad Prism. The difference between luminescence intensities in the absence of enzyme (Lut) and in the presence of enzyme (Luc) was defined as 100% activity (Lut − Luc). […] The IC50 value was determined using GraphPad Prism software. […]
(§4) Glo Plus luminescence kinase assay kits were used in these assays. […] The assay measures kinase activity by quantitating the amount of ATP remaining in the solution following kinase reaction. […] After the enzymatic reaction, 50 µL of Kinase-Glo Plus Luminescence kinase assay solution (Promega) was added to each reaction, and the plate was incubated for 5 min at room temperature. The luminescence signal was measured using a BioTek Synergy 2 microplate reader. […] The luminescence data were analyzed using the Graphpad Prism software.

A further series concerns the target T2, EGFR (Homo sapiens, UniProt P00533).
T2 construct: purchased BPS Bioscience 40721
In words: Kinase-Glo Plus luminescence kinase inhibition assay, EGFR. It counts as biochemical. Conditions: 10 µM ATP, 30 °C, 40 min; mean ± SEM. The protocol: as §2, §3, §4
On the technique in general: Kinase-Glo reads ATP consumption through a luciferase reaction.

The viability is a per cent measure of how many cells are alive, often set against a control. Low values mean more harm to the cells, high ones less harm to the cells. In general, IC50 refers to the concentration that gives 50% inhibition.

T2 sequence (P00533 25-1210): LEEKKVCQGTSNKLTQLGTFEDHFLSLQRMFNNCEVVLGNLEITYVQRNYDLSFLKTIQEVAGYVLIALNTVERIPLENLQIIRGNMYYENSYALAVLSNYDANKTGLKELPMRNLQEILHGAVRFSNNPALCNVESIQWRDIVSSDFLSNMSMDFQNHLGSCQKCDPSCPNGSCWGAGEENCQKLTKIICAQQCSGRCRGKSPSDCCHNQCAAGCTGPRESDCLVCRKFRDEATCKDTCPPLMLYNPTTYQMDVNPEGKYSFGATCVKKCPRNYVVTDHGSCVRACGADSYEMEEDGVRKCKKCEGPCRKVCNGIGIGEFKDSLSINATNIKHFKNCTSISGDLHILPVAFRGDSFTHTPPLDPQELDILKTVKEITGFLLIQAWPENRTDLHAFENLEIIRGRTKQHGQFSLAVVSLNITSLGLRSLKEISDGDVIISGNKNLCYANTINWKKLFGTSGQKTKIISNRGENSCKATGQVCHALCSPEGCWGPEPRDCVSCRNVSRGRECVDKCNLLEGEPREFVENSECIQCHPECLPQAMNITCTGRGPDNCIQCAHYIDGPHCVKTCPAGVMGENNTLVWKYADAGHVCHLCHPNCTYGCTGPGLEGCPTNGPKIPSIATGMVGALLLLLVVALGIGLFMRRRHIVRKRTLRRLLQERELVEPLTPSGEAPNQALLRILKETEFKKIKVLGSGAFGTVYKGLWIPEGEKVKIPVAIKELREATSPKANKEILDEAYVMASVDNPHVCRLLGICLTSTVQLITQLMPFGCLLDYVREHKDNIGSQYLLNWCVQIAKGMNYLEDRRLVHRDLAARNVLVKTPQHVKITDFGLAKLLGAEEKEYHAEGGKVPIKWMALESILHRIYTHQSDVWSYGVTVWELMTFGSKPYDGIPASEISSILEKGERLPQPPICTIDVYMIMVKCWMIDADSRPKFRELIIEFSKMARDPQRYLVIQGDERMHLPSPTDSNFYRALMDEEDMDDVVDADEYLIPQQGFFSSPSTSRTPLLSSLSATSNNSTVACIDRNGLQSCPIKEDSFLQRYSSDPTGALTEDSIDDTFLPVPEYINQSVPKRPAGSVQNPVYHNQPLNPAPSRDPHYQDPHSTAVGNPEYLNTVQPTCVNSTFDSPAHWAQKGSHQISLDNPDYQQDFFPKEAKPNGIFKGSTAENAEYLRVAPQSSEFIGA
T1 sequence (P35968 20-1356): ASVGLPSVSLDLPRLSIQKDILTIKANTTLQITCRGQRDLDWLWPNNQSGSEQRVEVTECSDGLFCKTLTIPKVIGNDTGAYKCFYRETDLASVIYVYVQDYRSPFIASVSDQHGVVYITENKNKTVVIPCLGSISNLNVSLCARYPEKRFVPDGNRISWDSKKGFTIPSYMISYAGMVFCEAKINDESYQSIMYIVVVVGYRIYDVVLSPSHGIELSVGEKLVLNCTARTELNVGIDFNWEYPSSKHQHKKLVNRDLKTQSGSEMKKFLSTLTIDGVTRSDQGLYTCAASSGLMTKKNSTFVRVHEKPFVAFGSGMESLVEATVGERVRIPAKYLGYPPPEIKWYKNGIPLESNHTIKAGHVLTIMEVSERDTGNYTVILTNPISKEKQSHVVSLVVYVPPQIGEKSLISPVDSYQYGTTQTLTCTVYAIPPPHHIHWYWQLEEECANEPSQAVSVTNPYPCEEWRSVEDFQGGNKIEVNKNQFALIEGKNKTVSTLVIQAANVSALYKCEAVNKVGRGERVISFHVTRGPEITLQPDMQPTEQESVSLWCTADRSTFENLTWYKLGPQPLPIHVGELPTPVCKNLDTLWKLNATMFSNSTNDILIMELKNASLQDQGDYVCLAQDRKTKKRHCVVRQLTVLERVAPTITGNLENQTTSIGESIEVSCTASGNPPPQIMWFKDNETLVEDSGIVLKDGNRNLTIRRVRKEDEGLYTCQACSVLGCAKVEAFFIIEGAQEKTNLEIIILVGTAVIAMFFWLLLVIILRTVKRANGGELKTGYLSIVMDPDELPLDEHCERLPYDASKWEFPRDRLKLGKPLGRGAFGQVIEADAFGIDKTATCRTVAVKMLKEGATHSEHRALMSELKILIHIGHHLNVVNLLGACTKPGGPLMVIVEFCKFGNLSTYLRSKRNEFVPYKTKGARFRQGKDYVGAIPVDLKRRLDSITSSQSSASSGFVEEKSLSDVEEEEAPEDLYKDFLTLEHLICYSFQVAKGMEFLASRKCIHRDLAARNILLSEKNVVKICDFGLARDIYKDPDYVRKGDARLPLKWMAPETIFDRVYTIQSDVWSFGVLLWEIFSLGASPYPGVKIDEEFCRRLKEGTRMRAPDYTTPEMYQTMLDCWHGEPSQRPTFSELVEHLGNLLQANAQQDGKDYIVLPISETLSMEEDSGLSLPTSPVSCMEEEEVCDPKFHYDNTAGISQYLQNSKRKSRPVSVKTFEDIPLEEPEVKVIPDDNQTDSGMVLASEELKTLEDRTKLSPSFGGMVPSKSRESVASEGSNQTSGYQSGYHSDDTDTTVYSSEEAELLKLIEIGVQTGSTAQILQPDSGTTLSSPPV

As for `O=C1Nc2ccc(Cl)cc2C1=Nc1ccc2nc[nH]c(=O)c2c1` [Compound 9, 6-(5-Chloro-2-oxo-1,2-dihydro-indol-3-ylideneamino)-3H-quinazolin-4-one], in the series with HepG-2 cells, the “fold higher cytotoxicity than indirubin” value is recorded as 2.2–2.7 fold, the viability at 1.25 µM is 61.3 ± 3.6%, the viability at 2.5 µM came out at 54.4 ± 3.1% and the viability at 5 µM amounted to 34.8 ± 0.9%. Also, in the series on HepG-2 cells, the viability at 10 µM was found to be 28.6 ± 2.1%, the viability at 20 µM is 23.1 ± 2.4%, the viability at 40 µM stood at 19.6 ± 2% and the viability at 80 µM is 16.3 ± 1.7%. For the same compound, in the series on HepG-2 cells, the viability at 160 µM turned out to be 12.9 ± 1.5% and the IC50 worked out at 2.53 ± 0.11 µM. In the series with MCF-7 cells, this compound had a viability at 1.25 µM of 90.5 ± 7.8%, a viability at 2.5 µM of 72.8 ± 6.3%, a viability at 5 µM of 64.1 ± 4.5% and a viability at 10 µM of 49 ± 2%. In the series with MCF-7 cells, the viability at 20 µM is 34.4 ± 0.2%, the viability at 40 µM was 18.2 ± 1%, the viability at 80 µM came out at 14.8 ± 1.3% and the viability at 160 µM was 8.7 ± 1.2%. Moreover, the IC50 in the series with MCF-7 cells was 7.54 ± 0.71 µM. For the same compound, the half-inhibitory concentration (IC50) on VEGFR-2 came out at 56.7 ± 4.3 nM. The IC50 on EGFR amounted to 87.5 ± 6.71 nM.
As for `O=C1Nc2ccc(Cl)cc2C1=Nc1ccc(-c2nc3ccccc3c(=O)[nH]2)cc1` [Compound 20, 2-[4-(5-Chloro-2-oxo-1,2-dihydro-indol-3-ylideneamino)-phenyl]-3H-quinazolin-4-one], in the series with HepG-2 cells, the “fold higher cytotoxicity than indirubin” value is reported as 2.2–2.7 fold, the viability at 1.25 µM was determined as 58.2 ± 3.3%, the viability at 2.5 µM turned out to be 52.1 ± 2.9% and the viability at 5 µM worked out at 36.7 ± 1.2%. Further, in the series with HepG-2 cells, the viability at 10 µM stood at 29.4 ± 2.5%, the viability at 20 µM is 21.7 ± 2%, the viability at 40 µM stood at 18.4 ± 1.8% and the viability at 80 µM was determined as 15.2 ± 1.5%. Moreover, in the series with HepG-2 cells, the viability at 160 µM is 11.8 ± 1.3% and the IC50 stood at 3.08 ± 0.35 µM. Further, in the series on MCF-7 cells, the viability at 1.25 µM was 92.4 ± 5.7%, the viability at 2.5 µM turned out to be 84.3 ± 4.8%, the viability at 5 µM amounted to 76.7 ± 4.2% and the viability at 10 µM stood at 67.9 ± 3.4%. Further, in the series with MCF-7 cells, the viability at 20 µM was 47.1 ± 3%, the viability at 40 µM is 24.6 ± 1.9%, the viability at 80 µM was found to be 7.77 ± 0.9% and the viability at 160 µM is 4.1 ± 0.1%. In addition, the IC50 with MCF-7 cells was 5.28 ± 0.22 µM. Besides, the IC50 on VEGFR-2 was found to be 14.3 ± 2.7 nM. Moreover, the IC50 at EGFR worked out at 32.7 ± 1.61 nM.
